Experimental data as given in a compilation of properties of binary mixtures (doi:10.1021/je7001804).

Test: xn = mol fraction of the nth substance listed
Conditions: 101 kPa

CC[n+]1ccn(C)c1.O=S(=O)([O-])C(F)(F)F + CCCO
speed of sound [m/s]
Conditions	278.15 K	288.15 K	298.15 K	308.15 K	318.15 K	328.15 K	338.15 K
x2 = 0.049	1475.1	1451.2	1428.3	1405.9	–	1362.5	1341.4
x2 = 0.1095	1465.8	1441.9	1419	–	1374.5	–	1331.7
x2 = 0.1497	1459	1435.5	1412.7	1390.3	1368.2	–	1325.3
x2 = 0.2004	1450.3	1426.7	–	–	1359.3	1337.6	1316.5
x2 = 0.3	1432.3	1408.4	1385.2	1362.3	1340	1317.9	1296.2
x2 = 0.3993	–	1388	1364.3	1341.1	1318.4	1295.9	1273.9
x2 = 0.499	1389.2	1364.6	1340.5	1316.9	1293.6	1270.7	1248.1
x2 = 0.6007	1363.1	1337.9	1313.4	1289.2	–	1241.7	1218.3
x2 = 0.6998	1335.8	–	1284.3	–	1234.2	1209.5	1185
x2 = 0.7996	1308.3	–	1253.7	1227	1200.5	1174.3	1148.2
x2 = 0.8496	1296	1267.3	1239.2	1211.4	1183.8	1156.5	1129.3
x2 = 0.8999	1286.3	1255.9	1226.3	1197.1	1168.1	1139.2	–
x2 = 0.9499	1279.8	1247.3	1215.6	–	–	–	1092

CC[n+]1ccn(C)c1.O=S(=O)([O-])C(F)(F)F + CCO
speed of sound [m/s]
Conditions	278.15 K	288.15 K	298.15 K	308.15 K	318.15 K	328.15 K
x2 = 0.0508	1475.9	1452.2	1429.4	1407	1385.2	1363.9
x2 = 0.0983	–	–	1422.7	1400.4	–	1357.6
x2 = 0.1483	1461.9	1438.3	–	1393.1	1371.1	1349.8
x2 = 0.198	–	1430.7	–	–	–	–
x2 = 0.3072	1435.9	–	1389.3	1366.7	1344.6	–
x2 = 0.4068	1416.2	1392.4	1369.2	1346.4	1323.9	1301.8
x2 = 0.4985	1394.8	1370.6	1346.9	1323.6	–	–
x2 = 0.5999	1366.8	–	1318	1294.2	–	1247.7
x2 = 0.6991	–	1308.5	1283.7	1259.2	1235.1	1211.2
x2 = 0.8001	–	–	1241.7	1215.7	1189.9	1164.3
x2 = 0.8497	1273.5	1245.6	1218.2	–	1164.7	1138.4
x2 = 0.9	1252.7	1223.1	–	–	1137.5	–
x2 = 0.9501	1233	1201.1	1170.1	1139.4	1109.1	1079.2

CC[n+]1ccn(C)c1.O=S(=O)([O-])C(F)(F)F + CO
speed of sound [m/s]
Conditions	278.15 K	288.15 K	298.15 K	308.15 K	318.15 K
x2 = 0.0511	1477.5	1454	1431.1	1408.8	1387
x2 = 0.1016	1472	1448.7	–	1403.7	1382
x2 = 0.1557	1466.4	1443	–	1398	1376.2
x2 = 0.2035	–	–	1414.4	1392	1370.1
x2 = 0.3006	1447.8	–	1401.5	1379.1	1357.3
x2 = 0.3988	1432.7	–	1386	1363.4	1341.2
x2 = 0.5074	1411.3	–	–	1341.7	1319.4
x2 = 0.5993	1388.7	1364.7	1341.2	1318.2	1295.5
x2 = 0.6995	1356.5	1332	1308	–	1261.2
x2 = 0.8001	1312.5	1287.1	1262.1	–	1213.5
x2 = 0.8498	1285	1258.6	1232.8	1207.4	1182.5
x2 = 0.8995	1253.3	1225.3	1198	1171.2	1144.8
x2 = 0.9495	–	1186	–	–	1099.2

CC[n+]1ccn(C)c1.O=S(=O)([O-])C(F)(F)F + O
speed of sound [m/s]
Conditions	278.15 K	288.15 K	298.15 K	308.15 K	318.15 K	328.15 K	338.15 K
x1 = 0.0178	1510.5	1529	1541.8	1549.8	–	1553.1	1548.9
x2 = 0.0502	1482.9	1459.7	1437.1	1415	1393.3	1371.8	–
x2 = 0.1058	1484.8	1461.7	1439.2	–	1395.5	–	1352.9
x2 = 0.1504	1486.6	–	1441	1418.9	1397	–	1354.2
x2 = 0.249	–	1468.2	1445.9	1424	1402.3	1380.8	1359.5
x2 = 0.3004	1494	1471.3	1449.1	1427.2	–	–	–
x2 = 0.3524	–	1474.8	1452.7	1430.8	1409.2	–	1366.2
x2 = 0.3961	–	1478.3	1456.2	1434.4	1412.7	1391.2	1369.7
x2 = 0.4505	1505.3	1483	–	1439.3	1417.7	1396.2	1374.7
x2 = 0.5024	1510.7	–	1466.7	–	1423.4	1401.7	1380
x2 = 0.5502	1516.2	1494.3	1472.6	1451	1429.3	–	–
x2 = 0.6	–	1501.1	1479.6	1458.1	–	1414.9	1393
x2 = 0.6502	1530.5	1509.2	1488	1466.7	1445.3	1423.6	1401.7
x2 = 0.702	1539.8	1519.2	1498.4	–	1456.1	1434.6	1412.9
x2 = 0.7493	1549	1529.2	1509.1	–	1467.8	1446.5	1424.7
x2 = 0.7998	–	–	1522.5	1503.1	1483	1462.2	1440.7
x2 = 0.8499	1569.5	1554.1	1537.6	1520.1	1501.5	1482	–
x2 = 0.8996	–	1564.9	1552.9	1539.1	1523.7	1506.7	1488.2
x2 = 0.9498	–	1563.7	1561.1	1555.7	1547.7	1537.1	1524.2
